We go through five compounds from patent US20250115600A1, “COVALENT MODIFIERS OF AKT1 AND USES THEREOF” (Terremoto Biosciences, Inc., priority 2022, published 2025).

Structures are written as SMILES.

In general, IC50 refers to the concentration that inhibits the measured activity by half. High values mean lower potency, low ones higher potency.

In series [1] the target is T1, AKT1 WT (Homo sapiens (Human), UniProt P31749). Briefly: Live cell target engagement (NanoBRET) in HEK293 cells. Type of series: cell-based. For orientation: Bioluminescence resonance energy transfer reports proximity on the nanometre scale.
Target sequence in this assay (P31749 whole entry): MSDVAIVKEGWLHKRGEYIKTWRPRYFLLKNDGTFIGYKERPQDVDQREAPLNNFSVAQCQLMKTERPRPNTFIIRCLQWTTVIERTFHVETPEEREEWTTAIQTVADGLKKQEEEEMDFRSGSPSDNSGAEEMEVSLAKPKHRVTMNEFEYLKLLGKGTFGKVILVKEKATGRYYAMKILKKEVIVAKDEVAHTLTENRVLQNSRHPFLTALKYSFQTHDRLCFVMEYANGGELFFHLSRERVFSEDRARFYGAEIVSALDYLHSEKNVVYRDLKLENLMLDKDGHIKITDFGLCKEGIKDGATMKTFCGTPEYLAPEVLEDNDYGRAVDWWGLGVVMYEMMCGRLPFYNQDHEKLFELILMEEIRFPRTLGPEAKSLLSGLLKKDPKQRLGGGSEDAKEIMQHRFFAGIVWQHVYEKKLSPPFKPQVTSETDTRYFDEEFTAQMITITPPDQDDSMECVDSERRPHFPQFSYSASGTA
Series [2] concerns the target T2, AKT1 E17K (Homo sapiens (Human), UniProt P31749, E17K). The description is as above. Format: cell-based.
Target sequence in this assay (P31749 whole entry E17K): as the sequence (P31749 whole entry) above, with E17K counted along it
The target in series [3] is T1, AKT1 WT. Kind of series: Intact mass spectrometry, covalent complex formation and ARQ-092 competition. The settings on record: protein 1 μM, compound 1.5 μM, 2 hrs at 37° C., NaBH4 reduction; for covalent complex formation with AKT1 WT protein: absence of competitor; for covalent complex formation with AKT1 WT protein in presence of competitor: with ARQ092 (50 μM). Format: binding. A digest of the protocol: (§1)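 AKT1 WT or E17K (1 μM) was incubated with compound (1.5 μM) for 2 hrs at 37° C., with or without ARQ092 (50 μM) competitor as specificity control. Imines were reduced with 5 mM NaBH4 for 5 min, quenched in acetonitrile+1% TFA, and covalent adducts read by intact-mass LCMS.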
Target sequence in this assay (P31749 2-480): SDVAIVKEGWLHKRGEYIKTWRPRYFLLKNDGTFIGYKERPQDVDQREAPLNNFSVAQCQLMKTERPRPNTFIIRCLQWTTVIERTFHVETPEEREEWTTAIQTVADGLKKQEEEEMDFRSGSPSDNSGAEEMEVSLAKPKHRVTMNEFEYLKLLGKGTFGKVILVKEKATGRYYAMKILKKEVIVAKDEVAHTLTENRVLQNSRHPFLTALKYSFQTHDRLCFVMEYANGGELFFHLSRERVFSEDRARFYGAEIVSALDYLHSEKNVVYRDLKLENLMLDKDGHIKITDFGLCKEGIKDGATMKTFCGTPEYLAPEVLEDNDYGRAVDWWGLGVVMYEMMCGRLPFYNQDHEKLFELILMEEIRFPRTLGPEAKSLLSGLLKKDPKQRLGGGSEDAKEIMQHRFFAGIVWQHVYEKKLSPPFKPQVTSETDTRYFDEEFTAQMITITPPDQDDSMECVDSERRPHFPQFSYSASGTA

Series [4] deals with AKT1 E17K mutant protein (Homo sapiens (Human), UniProt P31749, E17K). The series is described as above. Type of series: binding. The settings on record: for covalent complex formation with AKT1 E17K mutant protein / covalent complex formation with AKT1 E17K mutant protein in presence of competitor: protein 1 μM, compound 1.5 μM, 2 hrs at 37° C., NaBH4 reduction; for covalent complex formation with AKT1 E17K mutant protein: absence of competitor; for covalent complex formation with AKT1 E17K mutant protein in presence of competitor: with ARQ092 (50 μM). A digest of the protocol: as §1

In series [5] the target is T1, AKT1 WT. Kind of series: Dissociation rate by intact protein LCMS after ARQ092 chase. Particulars: compound 1.5 μM, 2 hours at 37° C., then ARQ092 50 μM. Type of series: binding. The protocol: (§2) AKT1 WT or AKT1 E17K (1 μM) were treated with a compound of Table 1 (1.5 μM) for 2 hours at 37° C., then ARQ092 (50 μM final concentration) was added to prevent aldehyde-containing compound rebinding after initial dissociation. At various timepoints, aliquots were removed and quenched with 5 mM NaBH4 for 5 min to capture the reversible imine through reductive amination. Reduction reactions were quenched by diluting the sample in equal volume acetonitrile+1% TFA, then analyzed by LCMS. Deconvoluted monoisotopic intensities of unmodified vs. compound-modified mass peaks were compared.
Target sequence in this assay (P31749 2-480): as above

The target of series [6] is T2, AKT1 E17K. The series is described as above. Format: binding. Particulars: for AKT1 E17K t1/2: compound 1.5 μM, 2 hours at 37° C., then ARQ092 50 μM; for Off-rate Selectivity E17K/WT: ratio of t1/2. As for the experimental part: as §2
Target sequence in this assay (P31749 2-480 E17K): as the sequence (P31749 2-480) above, with E16K counted along it
Series [7] deals with AKT2 (Homo sapiens (Human), UniProt P31751). Briefly: Live cell target engagement (NanoBRET) in HEK293 cells. Format: cell-based.
In series [8] the target is T1, AKT1 WT. Kind of series: Dissociation rate of Compound A and Compound B by competition with ARQ-092, LCMS. Format: binding. Particulars: compound 5 μM, 15 minutes, then ARQ-092 50 μM; 25 mM HEPES pH 8.0, 150 mM NaCl. The protocol: (§3) Determination of compound dissociation rate by intact protein mass spectrometry:Recombinant AKT1 containing appropriate mutations (1 μM) was treated with inhibitor (5 μM) at room temperature. After 15 minutes, ARQ-092 (50 μM final concentration) was added to prevent aldehyde-containing compound rebinding after initial dissociation. At various timepoints, aliquots were removed and quenched with 5 mM NaBH4 to capture the reversible imine through reductive amination, then analyzed by LCMS. Deconvoluted monoisotopic intensities of unmodified vs. compound-modified mass peaks were compared.
(§4) AKT1(E17K or WT) (1 μM) was incubated with Compound A or Compound B (5 μM) for 15 minutes in 25 mM HEPES pH 8.0, 150 mM NaCl buffer. Then ARQ-092 (50 μM) was added and aliquots quenched with 5 mM NaBH4 at a series of timepoints and the percentage labelling determined by LCMS. FIG. 32A and FIG. 32B provide competition data (dissociation rates) for Compound A and Compound B in both wild-type AKT1 and AKT1 E17K against ARQ-092. Table 8 provides half-life data based on the dissociation studies described herein.
Target sequence in this assay (P31749 2-480): as the sequence (P31749 2-480) above

Series [9] addresses T2, AKT1 E17K. The description is as above. Type of series: binding. Particulars: for AKT1 E17K t1/2: compound 5 μM, 15 minutes, then ARQ-092 50 μM, 25 mM HEPES pH 8.0, 150 mM NaCl; for Off-rate Selectivity E17K/WT: ratio of t1/2. As for the experimental part: as §3, §4
Target sequence in this assay (P31749 2-480 E17K): as the sequence (P31749 2-480) above, with E16K counted along it
Series [10] deals with BEAS2B-AKT1(E17K) (Homo sapiens (Human), UniProt P31749, E17K). Kind of series: Washout, target engagement durability in intact cells (in-gel fluorescence). Format: cell-based. The protocol:
(§5) FIG. 31 illustrates in-gel fluorescence and western blot wash out experiments of BEAS2B-AKT1(WT) and BEAS2B-AKT1(E17K) following incubation of the cells with Compound B for 0.5 hr. Wash out periods were 0 hr, 0.5 hr, 1 hr, 1.5 hr, 3 hrs, and 21 hrs.
(§6) Measurement of target engagement durability in intact cells: Beas-2b cells stably over-expressing either Flag-AKT1 WT or Flag-AKT1 E17K were treated with compound for 30 minutes at 37 C. The media was then aspirated and replaced with fresh media and the cells were incubated at 37° C. At various timepoints, cells were washed with PBS and then lysed in buffer containing 5 mM NaBH4. After 1 h, the lysate was precipitated in MeOH/CHCl3, resuspended in 1% SDS in PBS and then subjected to copper catalyzed click chemistry with TAMRA-biotin-azide. The samples were precipitated again and then resuspended in 1.5× SDS loading buffer, separated by SDS-PAGE and analyzed by in-gel fluorescence and western blot.

Series [11] deals with BEAS2B-AKT1(WT) (Homo sapiens (Human), UniProt P31749). The series is described as above. Particulars: incubation 0.5 hr; 21 hours of dilution compared to 1 hour. Type of series: cell-based. As for the experimental part: as §5, §6
BEAS2B-AKT1(WT), sequence (P31749 whole entry): as the sequence (P31749 whole entry) above

AKT2, sequence (P31751 whole entry): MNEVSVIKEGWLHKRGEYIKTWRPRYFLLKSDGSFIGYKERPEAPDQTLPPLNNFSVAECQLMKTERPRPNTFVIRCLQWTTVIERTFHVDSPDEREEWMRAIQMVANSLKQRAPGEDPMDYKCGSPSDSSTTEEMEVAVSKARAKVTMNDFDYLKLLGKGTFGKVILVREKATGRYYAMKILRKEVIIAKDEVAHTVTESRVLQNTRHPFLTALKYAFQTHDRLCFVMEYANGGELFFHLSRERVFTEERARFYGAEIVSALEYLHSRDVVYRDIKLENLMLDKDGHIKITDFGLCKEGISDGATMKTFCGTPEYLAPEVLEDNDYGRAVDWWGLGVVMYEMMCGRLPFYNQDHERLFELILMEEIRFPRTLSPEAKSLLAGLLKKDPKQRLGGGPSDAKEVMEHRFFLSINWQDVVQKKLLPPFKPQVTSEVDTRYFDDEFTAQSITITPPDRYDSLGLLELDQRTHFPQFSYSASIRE
AKT1 E17K mutant protein, sequence (P31749 2-480 E17K): as the sequence (P31749 2-480) above, with E16K counted along it
BEAS2B-AKT1(E17K), sequence (P31749 whole entry E17K): as the sequence (P31749 whole entry) above, with E17K counted along it

As to `CC(=O)Nc1cc(CCNCc2ccc(-n3c(-c4cccnc4N)nc4ccc(-c5ccccc5)nc43)cc2)ccc1C=O` [Compound 110, N-(5-(2-((4-(2-(2-aminopyridin-3-yl)-5-phenyl-3H-imidazo[4,5-b]pyridin-3-yl)benzyl)amino)ethyl)-2-formylphenyl)acetamide], the IC50 in [1] (HEK293, 2 hours at 37° C.) was less than 0.1 µM. Besides, in [2], the “AKT1 E17K IC50: Selectivity vs AKT1 WT” value worked out at 1.2 and the “AKT1 E17K IC50: Selectivity vs AKT2” value is listed as 5.3. In series [2] (HEK293, 2 hours at 37° C.), this compound registered an IC50 of less than 0.1 µM. Also, in series [3], the “covalent complex formation with AKT1 WT protein” value was “small presence of covalent complex” and the “covalent complex formation with AKT1 WT protein in presence of competitor” value is “Essentially no covalent complex formation”. Further, in series [4] (comparison of the spectra without competitor), the “selectivity of complex formation, AKT1 E17K versus AKT1 WT” value is listed as “selective for complex formation with AKT1 E17K”. For the same compound, in series [4], the “covalent complex formation with AKT1 E17K mutant protein” value is recorded as “significant presence of a covalent complex” and the “covalent complex formation with AKT1 E17K mutant protein in presence of competitor” value is reported as “Essentially little to no covalent complex formation”. In addition, in [5], the “AKT1 (WT) t1/2” value is 4.9 min. Also, in series [6], the “AKT1 E17K t1/2” value stood at 43.2 min and the “Off-rate Selectivity E17K/WT” value was determined as 8.8. This compound displayed an IC50 in [7] (HEK293, 2 hours at 37° C.) of less than 0.1 µM.
Turning to `Nc1ncccc1-c1nc2ccc(-c3ccccc3)nc2n1-c1ccc(CNC(=O)Cc2ccc(C=O)c(O)c2F)cc1` [Compound 94, N-({4-[2-(2-aminopyridin-3-yl)-5-phenylimidazo[4,5-b]pyridin-3-yl]phenyl}methyl)-2-(2-fluoro-4-formyl-3-hydroxyphenyl)acetamide], in series [1] (HEK293, 2 hours at 37° C.), the concentration for half-maximal inhibition (IC50) was less than 0.1 µM. Besides, in series [2], the “AKT1 E17K IC50: Selectivity vs AKT1 WT” value is on record as 2.5 and the “AKT1 E17K IC50: Selectivity vs AKT2” value is recorded as 22. In [2] (HEK293, 2 hours at 37° C.), this compound returned an IC50 of less than 0.1 µM. In series [3], the “covalent complex formation with AKT1 WT protein” value was “presence of a covalent complex” and the “covalent complex formation with AKT1 WT protein in presence of competitor” value is reported as “Essentially no covalent complex formation”. Further, in [4], the “covalent complex formation with AKT1 E17K mutant protein” value was “presence of a covalent complex” and the “covalent complex formation with AKT1 E17K mutant protein in presence of competitor” value is “Essentially no covalent complex formation”. Also, the “AKT1 (WT) t1/2” value in series [5] was 24.2 min. Further, in series [6], the “AKT1 E17K t1/2” value came out at 111 min and the “Off-rate Selectivity E17K/WT” value came out at 4.6. In addition, the IC50 in series [7] (HEK293, 2 hours at 37° C.) was 0.1 to 0.5 µM.
`Nc1ncccc1-c1nc2ccc(-c3ccccc3)nc2n1-c1ccc(C2(NC(=O)Cc3ccc(C=O)c(O)c3F)CC2)cc1` [Compound 31, N-(1-{4-[2-(2-aminopyridin-3-yl)-5-phenylimidazo[4,5-b]pyridin-3-yl]phenyl}cyclopropyl)-2-(2-fluoro-4-formyl-3-hydroxyphenyl)acetamide]: the IC50 in [1] (HEK293, 2 hours at 37° C.) was less than 0.1 µM. In addition, in series [2], the “AKT1 E17K IC50: Selectivity vs AKT1 WT” value is on record as 1.4 and the “AKT1 E17K IC50: Selectivity vs AKT2” value is 5.8. The compound further came in with an IC50 in series [2] (HEK293, 2 hours at 37° C.) of less than 0.1 µM. In [3], the “covalent complex formation with AKT1 WT protein” value is listed as “presence of a covalent complex” and the “covalent complex formation with AKT1 WT protein in presence of competitor” value is on record as “Essentially little to no covalent complex formation”. In series [4], the “covalent complex formation with AKT1 E17K mutant protein” value is recorded as “significant presence of a covalent complex” and the “covalent complex formation with AKT1 E17K mutant protein in presence of competitor” value is “Essentially little to no covalent complex formation”. Also, the “AKT1 (WT) t1/2” value in series [5] turned out to be 85.9 min. In addition, in series [6], the “AKT1 E17K t1/2” value stood at 151 min and the “Off-rate Selectivity E17K/WT” value is reported as 1.8. The same compound gave an IC50 in [7] (HEK293, 2 hours at 37° C.) of less than 0.1 µM.
Turning to `C#Cc1cccc(-c2ccc3nc(-c4cccnc4N)n(-c4ccc(CNCCc5ccc(C=O)c(O)c5)cc4)c3n2)c1` [Compound B, 4-(2-((4-(2-(2-aminopyridin-3-yl)-5-(3-ethynylphenyl)-3H-imidazo[4,5-b]pyridin-3-yl)benzyl)amino)ethyl)-2-hydroxybenzaldehyde], the IC50 in series [1] (HEK293, 2 h at 37 C, Table 7) was 0.1 to 0.5 µM; in [2] (HEK293, 2 h at 37 C, Table 7), less than 0.1 µM; in [7] (HEK293, 2 h at 37 C, Table 7), more than 0.5 µM. Besides, the “AKT1 (WT) t1/2” value in [8] came out at 72.7 min. Moreover, the “AKT1 E17K t1/2” value in series [9] was 1037 min. For the same compound, the “Off-rate Selectivity E17K/WT” value in [9] was 14.7. Also, in series [10] (incubation 0.5 hr, 21 hour of washout compared to 1 hour), the “extent of binding to E17K AKT1 after washout” value is “roughly equivalent to binding after 1 hour of washout”. In series [10] (washout experiment), the “selectivity of binding, E17K AKT1 versus WT-AKT1” value is recorded as “binds with substantial selectively to K17 in E17K AKT1”. Besides, the “extent of binding to WT-AKT1 after washout” value in series [11] is “markedly diminished”.
As to `C#Cc1cccc(-c2ccc3nc(-c4cccnc4N)n(-c4ccc(CNC(=O)c5ccc(C=O)c(O)c5)cc4)c3n2)c1` [Compound A, N-(4-(2-(2-aminopyridin-3-yl)-5-(3-ethynylphenyl)-3H-imidazo[4,5-b]pyridin-3-yl)benzyl)-4-formyl-3-hydroxybenzamide], the IC50 in series [1] (HEK293, 2 h at 37 C, Table 7) is less than 0.1 µM; in series [2] (HEK293, 2 h at 37 C, Table 7), 0.1 to 0.5 µM; in [7] (HEK293, 2 h at 37 C, Table 7) it was more than 0.5 µM. Besides, the “AKT1 (WT) t1/2” value in [8] came to 5 min. The “AKT1 E17K t1/2” value in series [9] was found to be 8.2 min. Further, in series [9], the “Off-rate Selectivity E17K/WT” value was found to be 1.6.
